The structures appear in SMILES notation. Like-named read-outs stand apart in the source and are kept apart here.

One data set concerns HBV. The data set is described as follows: Determination of HBV DNA from the supernatants of HepAD38 cells (anti-HBV activity). The format is cell-based, hepatitis B virus. The following applies: Hepatitis B virus, read-out: Cell Activity (EC50). The method, boiled down: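 Supernatant viral DNA was measured by LightCycler qPCR, calibrated with pCH-9/3091 plasmid, 6 days after tetracycline-free HepAD38 cultures received half-log serial compound dilutions; untreated and tetracycline-treated cells served as controls; EC50 was fitted by non-linear regression.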

Another data set has as its target T1, HBV core protein (UniProt P03146).
T1 construct: fused on or other part: BODIPY-FL maleimide label on the C-terminal Cys150
The data set is described as follows: Biochemical capsid assembly assay (fluorescence quenching). The arrangement: species or system hepatitis B virus. Particulars: read-out: Assembly Activity (IC50); BODIPY-FL labelled core protein, 300 μM NaCl, read 6 min after start. Summed up:
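Assembly-induced fluorescence quenching (477/525 nm) was measured 6 min after NaCl addition ([…]), against 2.5 M and 0 M NaCl controls. The labelled C150 core dimer (truncated at 149) at 1.0-2.0 μM in HEPES pH 7.5 was tested with eight half-log compound dilutions, top 100, 31.6 or 10 μM. EC50 was obtained by non-linear fit from triplicates run three times.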

Data set [1] is described as follows: Cell viability assay (AlamarBlue) in HepAD38 cells. The following applies: human.
Setting [2] is: 144 h, HBV DNA in HepAD38 supernatant, day 6, qPCR.

T1 sequence (P03146 whole entry, looked up, the tested form may be a part): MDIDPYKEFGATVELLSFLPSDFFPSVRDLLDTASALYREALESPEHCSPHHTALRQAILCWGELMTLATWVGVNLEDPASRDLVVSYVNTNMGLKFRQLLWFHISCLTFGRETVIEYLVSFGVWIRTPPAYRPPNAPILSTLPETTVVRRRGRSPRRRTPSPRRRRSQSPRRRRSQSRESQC

One may read the EC50 as the concentration giving half of the maximal effect. A word on the IC50: it is the midpoint of a concentration-inhibition curve. A word on the CC50: it is the concentration giving 50% cytotoxicity. For the compound `CN(CCO)C(=O)c1n[nH]c2c1CN(C(=O)c1cc3c(F)c(F)ccc3[nH]1)CC2` [Example 52, 5-(4,5-difluoro-1H-indole-2-carbonyl)-N-(2-hydroxyethyl)-N-methyl-1H,4H,5H,6H,7H-pyrazolo[4,3-c]pyridine-3-carboxamide], the EC50 in the data set with HBV (setting [2]) is less than 1 µM. Further, the IC50 on HBV core protein was less than 5 µM. Also, the half-maximal cytotoxic concentration (CC50) at 6 days in data set [1] was more than 100 µM.
The corresponding values for `CN(CCO)C(=O)c1n[nH]c2c1CN(C(=O)c1cc3c(F)ccc(F)c3[nH]1)CC2` [Example 53, 5-(4,7-difluoro-1H-indole-2-carbonyl)-N-(2-hydroxyethyl)-N-methyl-1H,4H,5H,6H,7H-pyrazolo[4,3-c]pyridine-3-carboxamide] are less than 1 µM, less than 5 µM and more than 100 µM.
On to `COCCN(C)C(=O)c1n[nH]c2c1CN(C(=O)c1cc3ccccc3[nH]1)CC2` [Example 54, 5-(1H-indole-2-carbonyl)-N-(2-methoxyethyl)-N-methyl-1H,4H,5H,6H,7H-pyrazolo[4,3-c]pyridine-3-carboxamide], for which, in the data set with HBV (setting [2]), the EC50 was less than 1 µM. For the same compound, the IC50 on HBV core protein is less than 5 µM. In data set [1], this compound showed a CC50 at 6 days of more than 100 µM.
In the case of `Cc1cccc2[nH]c(C(=O)N3CCc4[nH]nc(C(=O)N(C)OCCOP(=O)(N[C@@H](C)C(=O)OC(C)C)Oc5ccccc5)c4C3)cc12` (stereo partly drawn) [Example 55, propan-2-yl (2S)-2-({[2-({N-methyl-1-[5-(4-methyl-1H-indole-2-carbonyl)-1H,4H,5H,6H,7H-pyrazolo[4,3-c]pyridin-3-yl]formamido}oxy)ethoxy](phenoxy)phosphoryl}amino)propanoate], the EC50 in the data set with HBV (HePAD38, 144 h) is less than 1 µM. Further, the half-maximal inhibitory concentration (IC50) on HBV core protein is less than 5 µM. The same compound registered a CC50 at 6 days in data set [1] of more than 32 µM.
Regarding `CC(C)OC(=O)[C@H](C)NP(=O)(OCCON(C)C(=O)c1n[nH]c2c1CN(C(=O)c1cc3c(Cl)cccc3[nH]1)CC2)Oc1ccccc1` (stereo partly drawn) [Example 56, propan-2-yl (2S)-2-({[2-({1-[5-(4-chloro-1H-indole-2-carbonyl)-1H,4H,5H,6H,7H-pyrazolo[4,3-c]pyridin-3-yl]-N-methylformamido}oxy)ethoxy](phenoxy)phosphoryl}amino)propanoate], in the data set with HBV (HePAD38, 144 h), the concentration giving a half-maximal response (EC50) was less than 1 µM. In addition, the IC50 at HBV core protein was less than 5 µM. The compound further showed a CC50 at 6 days in data set [1] of more than 32 µM.
As to `CN(CCO)C(=O)c1n[nH]c2c1CN(C(=O)c1cc3ccc(Cl)cc3[nH]1)CC2` [Example 57, 5-(6-chloro-1H-indole-2-carbonyl)-N-(2-hydroxyethyl)-N-methyl-1H,4H,5H,6H,7H-pyrazolo[4,3-c]pyridine-3-carboxamide], in the data set on HBV (setting [2]), the 50% effective concentration (EC50) is less than 1 µM. For the same compound, the IC50 on HBV core protein was less than 5 µM. The compound further came in with a CC50 at 6 days in data set [1] of more than 100 µM.
The corresponding values for `CN(CCO)C(=O)c1n[nH]c2c1CN(C(=O)c1cc3c(Cl)cccc3[nH]1)CC2` [Example 58, 5-(4-chloro-1H-indole-2-carbonyl)-N-(2-hydroxyethyl)-N-methyl-1H,4H,5H,6H,7H-pyrazolo[4,3-c]pyridine-3-carboxamide] are less than 1 µM, less than 5 µM and more than 100 µM.
As for `CN(CCO)C(=O)c1n[nH]c2c1CN(C(=O)c1cc3c(C(F)(F)F)cccc3[nH]1)CC2` [Example 59, N-(2-hydroxyethyl)-N-methyl-5-[4-(trifluoromethyl)-1H-indole-2-carbonyl]-1H,4H,5H,6H,7H-pyrazolo[4,3-c]pyridine-3-carboxamide], the concentration for a half-maximal effect (EC50) in the data set with HBV (setting [2]) was less than 1 µM. Moreover, the concentration for half-maximal inhibition (IC50) at HBV core protein was less than 5 µM. The compound also displayed a CC50 at 6 days in data set [1] of more than 32 µM.
The corresponding values for `CN(CCO)C(=O)c1n[nH]c2c1CN(C(=O)c1cc3c(Cl)cc(F)cc3[nH]1)CC2` [Example 60, 5-(4-chloro-6-fluoro-1H-indole-2-carbonyl)-N-(2-hydroxyethyl)-N-methyl-1H,4H,5H,6H,7H-pyrazolo[4,3-c]pyridine-3-carboxamide] are less than 1 µM, less than 5 µM and more than 32 µM.
The corresponding values for `Cc1cc(F)cc2[nH]c(C(=O)N3CCc4[nH]nc(C(=O)N(C)CCO)c4C3)cc12` [Example 61, 5-(6-fluoro-4-methyl-1H-indole-2-carbonyl)-N-(2-hydroxyethyl)-N-methyl-1H,4H,5H,6H,7H-pyrazolo[4,3-c]pyridine-3-carboxamide] are less than 1 µM, less than 5 µM and more than 100 µM.
The corresponding values for `CCc1cccc2[nH]c(C(=O)N3CCc4[nH]nc(C(=O)N(C)CCO)c4C3)cc12` [Example 62, 5-(4-ethyl-1H-indole-2-carbonyl)-N-(2-hydroxyethyl)-N-methyl-1H,4H,5H,6H,7H-pyrazolo[4,3-c]pyridine-3-carboxamide] are less than 1 µM, less than 5 µM and more than 100 µM.
For `Cc1cccc2[nH]c(C(=O)N3CCc4[nH]nc(C(=O)N(C)CCO)c4C3)cc12` [Example 63, N-(2-hydroxyethyl)-N-methyl-5-(4-methyl-1H-indole-2-carbonyl)-1H,4H,5H,6H,7H-pyrazolo[4,3-c]pyridine-3-carboxamide], the half-maximal effective concentration (EC50) in the data set on HBV (setting [2]) was less than 1 µM. In addition, at HBV core protein, the IC50 is less than 5 µM. In data set [1], this compound gave a cytotoxic concentration (CC50) at 6 days of more than 100 µM.
As to `CC(C)OC(=O)[C@H](C)NP(=O)(OCCON(C)C(=O)c1n[nH]c2c1CN(C(=O)c1cc3ccccc3[nH]1)CC2)Oc1ccccc1` (stereo partly drawn) [Example 64, propan-2-yl (2S)-2-({[2-({1-[5-(1H-indole-2-carbonyl)-1H,4H,5H,6H,7H-pyrazolo[4,3-c]pyridin-3-yl]-N-methylformamido}oxy)ethoxy](phenoxy)phosphoryl}amino)propanoate], the 50% effective concentration (EC50) in the data set on HBV (HePAD38, 144 h) is less than 1 µM. In addition, the half-inhibitory concentration (IC50) at HBV core protein was less than 5 µM. The compound further displayed a CC50 at 6 days in data set [1] of more than 32 µM.
The corresponding values for `CC(C)OC(=O)[C@H](C)NP(=O)(OCCCN(C)C(=O)c1n[nH]c2c1CN(C(=O)c1cc3c(Cl)cccc3[nH]1)CC2)Oc1ccccc1` (stereo partly drawn) [Example 66, propan-2-yl (2S)-2-{[(3-{1-[5-(4-chloro-1H-indole-2-carbonyl)-1H,4H,5H,6H,7H-pyrazolo[4,3-c]pyridin-3-yl]-N-methylformamido}propoxy)(phenoxy)phosphoryl]amino}propanoate] are less than 1 µM, less than 5 µM and more than 32 µM.
The corresponding values for `CC(C)OC(=O)[C@H](C)NP(=O)(OCCN(C)C(=O)c1n[nH]c2c1CN(C(=O)c1cc3c(Cl)cccc3[nH]1)CC2)Oc1ccccc1` (stereo partly drawn) [Example 67, propan-2-yl (2S)-2-{[(2-{1-[5-(4-chloro-1H-indole-2-carbonyl)-1H,4H,5H,6H,7H-pyrazolo[4,3-c]pyridin-3-yl]-N-methylformamido}ethoxy)(phenoxy)phosphoryl]amino}propanoate] are less than 1 µM, less than 5 µM and more than 32 µM.
The corresponding values for `CC(C)OC(=O)[C@H](C)NP(=O)(OCCCN(C)C(=O)c1n[nH]c2c1CN(C(=O)c1cc3ccccc3[nH]1)CC2)Oc1ccccc1` (stereo partly drawn) [Example 70, propan-2-yl (2S)-2-{[(3-{1-[5-(1H-indole-2-carbonyl)-1H,4H,5H,6H,7H-pyrazolo[4,3-c]pyridin-3-yl]-N-methylformamido}propoxy)(phenoxy)phosphoryl]amino}propanoate] are 1 to 25 µM, less than 5 µM and more than 32 µM.
Take `CC(C)OC(=O)[C@H](C)NP(=O)(OCCN(C)C(=O)c1n[nH]c2c1CN(C(=O)c1cc3ccccc3[nH]1)CC2)Oc1ccccc1` (stereo partly drawn) [Example 71, propan-2-yl (2S)-2-{[(2-{1-[5-(1H-indole-2-carbonyl)-1H,4H,5H,6H,7H-pyrazolo[4,3-c]pyridin-3-yl]-N-methylformamido}ethoxy)(phenoxy)phosphoryl]amino}propanoate]: the EC50 with HBV (HePAD38, 144 h) lay in the range of 1 to 25 µM. The IC50 at HBV core protein lay in the range of 5 to 10 µM. Also, in data set [1], the half-maximal cytotoxic concentration (CC50) at 6 days is more than 32 µM.
On to `CN(c1n[nH]c2c1CN(C(=O)c1cc3ccccc3[nH]1)CC2)S(C)(=O)=O` [Example 74, N-[5-(1H-indole-2-carbonyl)-1H,4H,5H,6H,7H-pyrazolo[4,3-c]pyridin-3-yl]-N-methylmethanesulfonamide], for which, in the data set on HBV (setting [2]), the concentration giving a half-maximal response (EC50) lay in the range of 1 to 25 µM. Moreover, the IC50 on HBV core protein is less than 100 µM. In addition, in data set [1], the half-maximal cytotoxic concentration (CC50) at 6 days was more than 100 µM.
Take `CN(C)c1n[nH]c2c1CN(C(=O)c1cc3ccccc3[nH]1)CC2` [Example 75, 5-(1H-indole-2-carbonyl)-N,N-dimethyl-1H,4H,5H,6H,7H-pyrazolo[4,3-c]pyridin-3-amine]: the EC50 with HBV (setting [2]) was less than 1 µM. For the same compound, the 50% inhibitory concentration (IC50) on HBV core protein fell in the range of 5 to 10 µM. The 50% cytotoxic concentration (CC50) at 6 days in data set [1] is more than 100 µM.
The corresponding values for `O=C(c1cc2ccccc2[nH]1)N1CCc2[nH]nc(NCC3CC3)c2C1` [Example 79, N-(cyclopropylmethyl)-5-(1H-indole-2-carbonyl)-1H,4H,5H,6H,7H-pyrazolo[4,3-c]pyridin-3-amine] are 1 to 25 µM, 5 to 10 µM and more than 100 µM.
On to `CCNc1n[nH]c2c1CN(C(=O)c1cc3ccccc3[nH]1)CC2` [Example 80, N-ethyl-5-(1H-indole-2-carbonyl)-1H,4H,5H,6H,7H-pyrazolo[4,3-c]pyridin-3-amine], for which the EC50 in the data set on HBV (setting [2]) lay in the range of 1 to 25 µM. On HBV core protein, the IC50 is less than 100 µM. In data set [1], this compound gave a CC50 at 6 days of more than 100 µM.
